# Active and inactive are the calls of the source. For most assays here, no stated cut-off is given here; in the data, actives have a measured EC50 and inactives only a lower limit.
# Experiments:
# [1] = inhibitors of intracellular T. cruzi replication, confirmation, NIH3T3 host cells, beta-gal luminescence (AID 2044); type: functional, cell-based;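 further: intracellular parasites grown in NIH/3T3 mouse fibroblasts as host cells; luminescent beta-galactosidase reporter signal from transgenic T. cruzi replicating inside host cells; inhibitors lower the luminescence signal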
# [2] = target: T1, Replicative DNA helicase DnaB (Mycobacterium tuberculosis, UniProt P9WMR3); test: DnaB intein splicing inhibitors, dose response, biochemical, cell-free fluorescence (AID 449749); type: functional
# T1 sequence (P9WMR3 whole entry): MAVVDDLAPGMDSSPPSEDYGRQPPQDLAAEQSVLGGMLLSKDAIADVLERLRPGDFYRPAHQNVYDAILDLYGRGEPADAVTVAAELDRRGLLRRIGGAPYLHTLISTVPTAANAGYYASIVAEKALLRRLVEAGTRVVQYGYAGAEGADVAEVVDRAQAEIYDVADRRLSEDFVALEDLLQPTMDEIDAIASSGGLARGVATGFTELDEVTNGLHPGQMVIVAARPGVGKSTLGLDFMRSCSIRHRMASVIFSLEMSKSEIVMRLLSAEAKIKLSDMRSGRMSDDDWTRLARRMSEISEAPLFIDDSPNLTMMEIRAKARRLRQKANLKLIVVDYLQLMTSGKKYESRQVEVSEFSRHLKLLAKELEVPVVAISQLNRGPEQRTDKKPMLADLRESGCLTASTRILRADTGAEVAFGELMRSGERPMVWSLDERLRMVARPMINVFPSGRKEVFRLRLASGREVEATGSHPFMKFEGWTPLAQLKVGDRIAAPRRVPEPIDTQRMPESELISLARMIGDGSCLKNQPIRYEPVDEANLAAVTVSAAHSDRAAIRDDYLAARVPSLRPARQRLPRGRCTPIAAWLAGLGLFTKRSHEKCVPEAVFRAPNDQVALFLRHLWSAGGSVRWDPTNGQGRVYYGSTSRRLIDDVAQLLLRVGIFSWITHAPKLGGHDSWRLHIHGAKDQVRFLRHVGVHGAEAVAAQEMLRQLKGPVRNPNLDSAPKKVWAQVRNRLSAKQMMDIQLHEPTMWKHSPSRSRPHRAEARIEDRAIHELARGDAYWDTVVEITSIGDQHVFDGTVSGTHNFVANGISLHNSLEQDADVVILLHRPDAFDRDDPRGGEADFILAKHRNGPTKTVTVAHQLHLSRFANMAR
# [3] = cytotoxicity toward NIH3T3 fibroblasts, dose response, counter-screen, cell-based, ATP luminescence, mouse fibroblasts (AID 2010); type: functional;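 further: cells exposed to compound for about 90 hours before reading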
# [4] = target: T2, Protein RecA (Mycobacterium tuberculosis, UniProt P9WHJ3); test: Fluorescence Cell-Free Homogeneous Dose Retest to Identify Inhibitors of RecA-Intein Splicing Activity. [Related pubchem assays (depositor defined):AID2097, AID2223, AID489010, AID492950]; type: functional
# T2 sequence (P9WHJ3 whole entry): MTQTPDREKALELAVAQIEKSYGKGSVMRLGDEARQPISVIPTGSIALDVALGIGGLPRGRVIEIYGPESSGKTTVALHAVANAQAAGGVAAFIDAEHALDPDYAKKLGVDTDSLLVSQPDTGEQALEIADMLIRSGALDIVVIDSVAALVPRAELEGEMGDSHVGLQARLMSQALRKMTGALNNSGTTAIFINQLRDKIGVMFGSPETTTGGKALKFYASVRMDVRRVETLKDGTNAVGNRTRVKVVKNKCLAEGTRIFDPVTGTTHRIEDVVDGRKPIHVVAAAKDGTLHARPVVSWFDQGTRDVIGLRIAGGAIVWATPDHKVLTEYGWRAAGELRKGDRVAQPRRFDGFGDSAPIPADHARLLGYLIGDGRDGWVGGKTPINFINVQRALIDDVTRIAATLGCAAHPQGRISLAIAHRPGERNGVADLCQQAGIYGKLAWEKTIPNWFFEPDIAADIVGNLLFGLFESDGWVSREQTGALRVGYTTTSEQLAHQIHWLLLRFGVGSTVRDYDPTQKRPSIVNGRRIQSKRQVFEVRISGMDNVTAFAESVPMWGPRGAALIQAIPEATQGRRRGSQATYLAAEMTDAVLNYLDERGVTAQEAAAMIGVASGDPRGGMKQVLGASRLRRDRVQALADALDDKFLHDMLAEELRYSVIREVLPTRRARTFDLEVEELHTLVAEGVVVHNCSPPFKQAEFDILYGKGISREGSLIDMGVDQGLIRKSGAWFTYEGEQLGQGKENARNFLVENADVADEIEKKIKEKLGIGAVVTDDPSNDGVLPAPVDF
# [5] = target: T3, Zinc finger protein mex-5 (Caenorhabditis elegans, UniProt Q9XUB2); test: MEX-5/TCR-2 RNA interaction inhibitors, dose response, biochemical, C. elegans, fluorescence polarization (AID 1960)
# T3 sequence (Q9XUB2 whole entry): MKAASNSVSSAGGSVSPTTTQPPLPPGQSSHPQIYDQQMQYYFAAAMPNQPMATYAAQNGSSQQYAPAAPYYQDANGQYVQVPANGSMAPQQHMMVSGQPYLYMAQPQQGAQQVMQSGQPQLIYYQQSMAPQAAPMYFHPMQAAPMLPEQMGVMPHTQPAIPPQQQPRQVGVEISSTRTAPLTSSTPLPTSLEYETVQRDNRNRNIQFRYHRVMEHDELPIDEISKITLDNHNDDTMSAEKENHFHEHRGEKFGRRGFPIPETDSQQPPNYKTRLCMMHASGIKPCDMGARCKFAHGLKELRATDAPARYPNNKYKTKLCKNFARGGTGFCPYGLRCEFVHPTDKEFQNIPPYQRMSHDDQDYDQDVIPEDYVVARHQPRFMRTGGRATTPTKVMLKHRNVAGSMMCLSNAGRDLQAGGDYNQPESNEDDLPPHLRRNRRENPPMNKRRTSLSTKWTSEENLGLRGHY
# [6] = target: T4, RNA-binding protein pos-1 (Caenorhabditis elegans, UniProt G5EF15); test: inhibitors of POS-1/mex-3 RNA binding, dose response, biochemical, fluorescence polarization (AID 1964);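 further: purified POS-1 fused to maltose binding protein made in E. coli; potency of compounds blocking POS-1 binding to fluorescent RNA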
# T4 sequence (G5EF15 whole entry): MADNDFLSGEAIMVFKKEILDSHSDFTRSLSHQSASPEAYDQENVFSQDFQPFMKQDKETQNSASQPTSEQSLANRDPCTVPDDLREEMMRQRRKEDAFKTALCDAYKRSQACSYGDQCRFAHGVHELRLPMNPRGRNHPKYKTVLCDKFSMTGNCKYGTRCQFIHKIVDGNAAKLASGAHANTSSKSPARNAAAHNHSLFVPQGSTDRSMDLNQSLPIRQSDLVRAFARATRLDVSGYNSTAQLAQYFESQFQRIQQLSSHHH
# [7] = HEp-2 cell cytotoxicity, dose response, cytotoxicity control for RSV inhibitor project, HTS (AID 2410); type: functional; conditions: human respiratory syncytial virus
# [8] = target: FAD-linked sulfhydryl oxidase ALR (Homo sapiens, UniProt P55789); test: inhibitors of human ALR sulfhydryl oxidase, dose response, biochemical, H2O2 detection, luminescence, cherry-pick (AID 493248)
# [9] = microbe, parasite or virus in culture; type: functional; conditions: Mycobacterium tuberculosis
# [10] = Luminescence Cell-Based Dose Response HTS to Identify Activators of Luciferase Translation or Activity in H4 […] Cells. [Related pubchem assays: 1829 (Project Summary), 1814 (Primary HTS)]; type: functional
# [11] = test system: H4; test: Luminescence Cell-Based Dose Response HTS to Identify Activators of 5'UTR Stem-Loop Driven Prion Protein mRNA Translation in H4 Neuroglioblastoma Cells. [Related pubchem assays: 1829 (Project Summary), 1814 (Primary HTS)]; type: functional; conditions: Homo sapiens
# [12] = Luminescence Cell-Based Dose Confirmation HTS to Identify Activators of 5'UTR Stem-Loop Driven Alpha-Synuclein mRNA Translation in H4 Neuroglioblastoma Cells. [Related pubchem assays: 1829 (Project Summary), 1814 (Primary HTS)]; type: functional
# [13] = cells; type: functional
# [14] = target: T5, Heat shock factor protein 1 (Mus musculus, UniProt P38532); test: inhibition of MG132-induced HSE-luciferase signal, confirmation, cell-based, NIH3T3, luminescence, dose retest (AID 2382); type: functional;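 further: NIH3T3 fibroblasts with HSF1-driven luciferase reporter stressed by proteasome inhibitor MG132; luminescence from HSF1-driven luciferase expression after 8 hours of MG132 stress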
# T5 sequence (P38532 whole entry): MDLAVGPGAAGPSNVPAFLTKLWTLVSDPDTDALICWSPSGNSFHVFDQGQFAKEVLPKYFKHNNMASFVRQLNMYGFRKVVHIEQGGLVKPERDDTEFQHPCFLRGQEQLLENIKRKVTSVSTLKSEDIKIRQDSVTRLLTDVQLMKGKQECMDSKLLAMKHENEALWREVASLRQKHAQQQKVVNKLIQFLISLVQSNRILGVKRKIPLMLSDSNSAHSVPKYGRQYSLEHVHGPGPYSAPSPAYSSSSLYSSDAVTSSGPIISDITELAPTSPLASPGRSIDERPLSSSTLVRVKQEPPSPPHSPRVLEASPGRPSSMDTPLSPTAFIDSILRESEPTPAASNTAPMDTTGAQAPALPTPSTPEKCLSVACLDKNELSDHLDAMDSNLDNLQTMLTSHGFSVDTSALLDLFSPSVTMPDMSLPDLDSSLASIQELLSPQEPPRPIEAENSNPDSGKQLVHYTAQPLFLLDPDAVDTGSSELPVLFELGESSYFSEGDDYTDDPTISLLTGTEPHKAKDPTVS
# [15] = target: T6, Polyadenylate-binding protein 1 (Homo sapiens, UniProt P11940); test: PABP1 MLLE–PAM2 interaction inhibitors, dose response, miRNA deadenylation inhibitor project, biochemical, fluorescence polarization, Cy5-PAM2 peptide, secondary (AID 602260); type: functional; conditions: read-out: IC50_Mean
# [16] = target: T6, Polyadenylate-binding protein 1; test: PABP1 MLLE–PAM2 binding inhibitor potency, dose response, biochemical, fluorescence polarization, FITC-PAM2 peptide (AID 602259); type: functional; conditions: read-out: IC50_Mean
# Chain of FAD-linked sulfhydryl oxidase ALR (P55789 whole entry): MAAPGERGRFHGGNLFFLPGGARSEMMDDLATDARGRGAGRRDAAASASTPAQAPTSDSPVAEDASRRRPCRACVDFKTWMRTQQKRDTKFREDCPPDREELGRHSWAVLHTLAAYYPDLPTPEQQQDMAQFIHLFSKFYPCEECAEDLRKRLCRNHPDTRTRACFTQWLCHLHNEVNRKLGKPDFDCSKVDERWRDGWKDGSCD
# T6 sequence (P11940 whole entry): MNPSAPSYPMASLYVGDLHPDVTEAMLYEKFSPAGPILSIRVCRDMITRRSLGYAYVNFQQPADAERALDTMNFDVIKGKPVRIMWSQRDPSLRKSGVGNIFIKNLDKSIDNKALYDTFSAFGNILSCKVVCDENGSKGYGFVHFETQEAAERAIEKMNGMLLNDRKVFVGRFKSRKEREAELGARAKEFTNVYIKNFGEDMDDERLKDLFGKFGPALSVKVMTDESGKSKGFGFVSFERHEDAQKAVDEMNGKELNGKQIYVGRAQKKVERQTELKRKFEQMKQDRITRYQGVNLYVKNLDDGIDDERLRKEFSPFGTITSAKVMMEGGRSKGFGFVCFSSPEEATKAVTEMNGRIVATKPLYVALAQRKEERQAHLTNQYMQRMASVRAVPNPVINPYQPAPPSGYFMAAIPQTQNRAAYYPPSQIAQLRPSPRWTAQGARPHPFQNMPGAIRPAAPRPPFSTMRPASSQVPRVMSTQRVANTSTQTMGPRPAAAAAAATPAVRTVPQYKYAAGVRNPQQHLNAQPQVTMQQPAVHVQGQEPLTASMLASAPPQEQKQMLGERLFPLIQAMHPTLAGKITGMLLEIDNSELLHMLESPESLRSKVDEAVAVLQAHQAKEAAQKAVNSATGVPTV
smiles,measurement,setting,value
CC(=O)N(C)Cc1ccc(C(=O)CCl)cc1,EC50,[1],2.51 µM (active)
same,AC50,[2],56.2 µM (active)
same,EC50,[3],3.7 µM (active)
same,EC50,[4],19.4 µM (active)
CCN(CC)C(=O)c1ccc2c(c1[N+](=O)[O-])C(=O)c1ccccc1C2=O,AC50,[2],> 380 µM (inactive)
same,EC50,[4],> 380 µM (inactive)
CCN(CC)CCN(Cc1cc2ccc(C)c(C)c2nc1O)C(S)=NCc1ccco1,EC50,[5],> 300 µM (not active)
same,EC50,[6],> 300 µM (not active)
same,CC50,[7],> 50 µM (active)
CCOC(=O)CSc1nnc(NCC(=O)OC(C)C)c(=O)[nH]1,AC50,[2],3.45 µM (active)
same,EC50,[4],9.44 µM (active)
O=C(O)CCc1ccc(-c2ccccc2)n1-c1ccc(C(=O)O)cc1,EC50,[5],> 300 µM (not active)
same,EC50,[6],> 300 µM (not active)
COc1ccc(CCSc2nnc(C3CCCCC3)n2N)cc1,AC50,[8],2.81 µM (active)
O=C(Nc1cccc(-c2cn3ccccc3n2)c1)c1ccccc1,AC50,[8],2.89 µM (active)
Nc1cc(C(=O)O)ccc1Nc1ccc(F)c(F)c1,AC50,[8],0.345 µM (active)
CCc1cc(-c2nnc(S)n2-c2cccc(C)c2)cs1,AC50,[8],3.65 µM (active)
O=C(c1cnn2c(C(F)F)cc(-c3ccccc3)nc12)N1CCc2ccccc2C1,CC50,[9],> 40 µM (active)
CN1C(=O)C(=Cc2cn(CC(=O)N3CCCC3)c3ccccc23)C(=O)N(C)C1=O,EC50,[5],> 300 µM (not active)
same,EC50,[6],> 300 µM (not active)
CCN(CC)C(=O)Cn1cc(C(=O)C(=O)N2CCc3ccccc32)c2ccccc21,EC50,[5],> 300 µM (not active)
same,EC50,[6],> 300 µM (not active)
CN1CCN(Cn2cc(/C=C/C(=O)c3ccccc3)c3ccccc32)CC1,EC50,[10],0.148 µM (active)
same,EC50,[11],18.9 µM (active)
same,CC50,[9],> 40 µM (active)
same,EC50,[12],0.233 µM (active)
O=C(Nc1cc(Oc2ccccc2)cc([N+](=O)[O-])c1)C12CC3CC(C1)CC(n1cnc(Cl)n1)(C3)C2,EC50,[1],1.51 µM (active)
same,EC50,[3],> 60 µM (not active)
same,CC50,[9],> 40 µM (active)
Sc1nnc(-c2ccc(Cl)cc2)n1-c1ccc(Cl)cc1,AC50,[8],4.74 µM (active)
COc1c(/C=C2/C(=O)NC(=O)N(C)C2=O)c(CCN(C)C(=O)c2ccccc2)cc2c1OCO2,EC50,[5],> 300 µM (not active)
same,EC50,[6],> 300 µM (not active)
Cc1noc(C)c1COC(=O)Cc1ccc(Br)cc1,AC50,[2],124 µM (active)
same,EC50,[4],> 380 µM (inactive)
Cc1cc(C)n(C(=O)c2ccc([N+](=O)[O-])cc2[N+](=O)[O-])n1,IC50,[13],43.6 µM (active)
COc1cccc(NC(=O)c2ccc(Cn3cc([N+](=O)[O-])cn3)o2)c1,IC50,[13],18.5 µM (active)
O=C(Oc1ccccc1)c1cccc(COC(=O)c2cnccn2)c1,IC50,[13],6.99 µM (active)
COc1ccc(CNC(=O)c2cc3cccc(O)c3oc2=N)cc1,IC50,[13],47.8 µM (active)
COC(=O)C1CSc2[nH]c(=O)sc2C1c1ccc(OC)c(OC)c1 (centres undefined),EC50,[5],> 300 µM (not active)
same,EC50,[6],> 300 µM (not active)
COC(=O)c1nnc(NC(=O)c2ccc(C(C)(C)C)cc2)[nH]1,AC50,[2],3.57 µM (active)
same,EC50,[4],10.1 µM (active)
same,EC50,[14],> 195 µM (not active)
CCCCCc1ccc(S(=O)(=O)NCCc2ccncc2)cc1,CC50,[9],12.1 µM (active)
CC1(C)Nc2ccccc2N(Cc2ccc([N+](=O)[O-])cc2)C1=O,AC50,[8],3.92 µM (active)
CCCOc1ccc(/C=c2\sc3nc(-c4ccco4)nn3c2=O)cc1OCC,EC50,[5],> 300 µM (not active)
same,EC50,[6],> 300 µM (not active)
COc1cc(/C=N/Nc2nc(O)nnc2C)cc([N+](=O)[O-])c1O,EC50,[5],10.8 µM (inconclusive)
same,EC50,[6],7.98 µM (active)
CCOC(=O)c1c2ccc(OCC(=O)N/N=C/c3ccc(Cl)cc3)cc2n2ccccc12,EC50,[6],> 300 µM (not active)
COc1c(O)cccc1[C@H](O)C1CCN(CCc2ccc(F)cc2)CC1,EC50,[5],13.7 µM (active)
same,IC50,[15],> 66 µM (inactive)
same,EC50,[6],14.4 µM (active)
same,IC50,[16],36.9 µM (inactive)

# Source: ChEMBL document CHEMBL1201862, “PubChem BioAssay data set” (2004)
